Test results reported in the supplement of paper PMC10307832.

Key:
Assay in all cases: relative viability (nuclei count vs DMSO), 5 days (fraction); higher = more cells survive
201T = tested on: 201T
Procedure, shortened: (§1)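 Relative viability equals treated-well nuclei counts divided by vehicle-well nuclei counts. Counts came from 4× images of lung cancer cell lines grown in 1536-well plates for 5 days after pin-tool dosing on the day after seeding. Dosing used one drug alone or a fixed anchor-drug dose plus five library-drug doses (not always all listed) in √10 steps, and values are medians of duplicate plates.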

A-427 = tested on: A-427
Procedure, shortened: as §1

BEN = tested on: BEN
Procedure, shortened: as §1

COR-L23 = tested on: COR-L23
Procedure, shortened: as §1

EKVX = tested on: EKVX
Procedure, shortened: as §1

HARA = tested on: HARA
Procedure, shortened: as §1

HCC-15 = tested on: HCC-15
Procedure, shortened: as §1

HCC-44 = tested on: HCC-44
Procedure, shortened: as §1

HCC-827 = tested on: HCC-827
Procedure, shortened: as §1

NCI-H1437 = tested on: NCI-H1437
Procedure, shortened: as §1

NCI-H1650 = tested on: NCI-H1650
Procedure, shortened: as §1

NCI-H1666 = tested on: NCI-H1666
Procedure, shortened: as §1

NCI-H1792 = tested on: NCI-H1792
Procedure, shortened: as §1

NCI-H1975 = tested on: NCI-H1975
Procedure, shortened: as §1

NCI-H2342 = tested on: NCI-H2342
Procedure, shortened: as §1

NCI-H23 = tested on: NCI-H23
Procedure, shortened: as §1

NCI-H358 = tested on: NCI-H358
Procedure, shortened: as §1

NCI-H441 = tested on: NCI-H441
Procedure, shortened: as §1

NCI-H596 = tested on: NCI-H596
Procedure, shortened: as §1

NCI-H650 = tested on: NCI-H650
Procedure, shortened: as §1

NCI-H838 = tested on: NCI-H838
Procedure, shortened: as §1

SK-MES-1 = tested on: SK-MES-1
Procedure, shortened: as §1

SW 900 = tested on: SW 900
Procedure, shortened: as §1

With O=c1cc(N2CCOCC2)oc2c(-c3cccc4c3sc3ccccc34)cccc12 + COc1cccc2cc(-c3nc([C@H]4CC[C@H](C(=O)O)CC4)n4ncnc(N)c34)[nH]c12 [OSI-027] (partner 0.5 µM) the relative viability (201T; first compound 0.01 µM) was 0.811, the relative viability (201T; first compound 0.03162 µM) was 0.832 and the relative viability (201T; first compound 0.1 µM) was 0.715. The relative viability (201T; first compound 0.3162 µM) was 0.721, the relative viability (201T; first compound 1 µM) was 0.645 and the relative viability (A-427; first compound 0.01 µM) was 0.514. For the same compound, the relative viability (A-427; first compound 0.03162 µM) was 0.469, the relative viability (A-427; first compound 0.1 µM) was 0.337 and the relative viability (A-427; first compound 0.3162 µM) was 0.484. The relative viability (A-427; first compound 1 µM) was 0.587, the relative viability (BEN; first compound 0.01 µM) was 0.304 and the relative viability (BEN; first compound 0.03162 µM) was 0.309. The relative viability (BEN; first compound 0.1 µM) was 0.302, the relative viability (BEN; first compound 0.3162 µM) was 0.323 and the relative viability (BEN; first compound 1 µM) was 0.311. It also gave a relative viability (COR-L23; first compound 0.01 µM) of 0.748, a relative viability (COR-L23; first compound 0.03162 µM) of 0.774 and a relative viability (COR-L23; first compound 0.1 µM) of 0.748. It also gave a relative viability (COR-L23; first compound 0.3162 µM) of 0.796, a relative viability (COR-L23; first compound 1 µM) of 0.834 and a relative viability (EKVX; first compound 0.01 µM) of 0.673. It also gave a relative viability (EKVX; first compound 0.03162 µM) of 0.715, a relative viability (EKVX; first compound 0.1 µM) of 0.659 and a relative viability (EKVX; first compound 0.3162 µM) of 0.719. It also gave a relative viability (EKVX; first compound 1 µM) of 0.749, a relative viability (HARA; first compound 0.01 µM) of 0.549 and a relative viability (HARA; first compound 0.03162 µM) of 0.638. It also gave a relative viability (HARA; first compound 0.1 µM) of 0.554, a relative viability (HARA; first compound 0.3162 µM) of 0.585 and a relative viability (HARA; first compound 1 µM) of 0.564. For the same compound, the relative viability (HCC-15; first compound 0.01 µM) was 0.674, the relative viability (HCC-15; first compound 0.03162 µM) was 0.807 and the relative viability (HCC-15; first compound 0.1 µM) was 0.774. It also gave a relative viability (HCC-15; first compound 0.3162 µM) of 0.688, a relative viability (HCC-15; first compound 1 µM) of 0.67 and a relative viability (HCC-44; first compound 0.01 µM) of 0.524. For the same compound, the relative viability (HCC-44; first compound 0.03162 µM) was 0.504, the relative viability (HCC-44; first compound 0.1 µM) was 0.588 and the relative viability (HCC-44; first compound 0.3162 µM) was 0.694. The relative viability (HCC-44; first compound 1 µM) was 0.463, the relative viability (HCC-827; first compound 0.01 µM) was 0.853 and the relative viability (HCC-827; first compound 0.03162 µM) was 0.813. The relative viability (HCC-827; first compound 0.1 µM) was 0.744, the relative viability (HCC-827; first compound 0.3162 µM) was 0.772 and the relative viability (HCC-827; first compound 1 µM) was 0.791. The relative viability (NCI-H1437; first compound 0.01 µM) was 0.907, the relative viability (NCI-H1437; first compound 0.03162 µM) was 0.848 and the relative viability (NCI-H1437; first compound 0.1 µM) was 0.913. It also gave a relative viability (NCI-H1437; first compound 0.3162 µM) of 0.944, a relative viability (NCI-H1437; first compound 1 µM) of 0.935 and a relative viability (NCI-H1650; first compound 0.01 µM) of 0.519. The relative viability (NCI-H1650; first compound 0.03162 µM) was 0.631, the relative viability (NCI-H1650; first compound 0.1 µM) was 0.535 and the relative viability (NCI-H1650; first compound 0.3162 µM) was 0.769. For the same compound, the relative viability (NCI-H1650; first compound 1 µM) was 0.592, the relative viability (NCI-H1666; first compound 0.01 µM) was 0.864 and the relative viability (NCI-H1666; first compound 0.03162 µM) was 0.922. The relative viability (NCI-H1666; first compound 0.1 µM) was 0.847, the relative viability (NCI-H1666; first compound 0.3162 µM) was 0.839 and the relative viability (NCI-H1666; first compound 1 µM) was 0.79. The relative viability (NCI-H1792; first compound 0.01 µM) was 0.717, the relative viability (NCI-H1792; first compound 0.03162 µM) was 0.716 and the relative viability (NCI-H1792; first compound 0.1 µM) was 0.653. For the same compound, the relative viability (NCI-H1792; first compound 0.3162 µM) was 0.752, the relative viability (NCI-H1792; first compound 1 µM) was 0.779 and the relative viability (NCI-H1975; first compound 0.01 µM) was 0.718. It also gave a relative viability (NCI-H1975; first compound 0.03162 µM) of 0.73, a relative viability (NCI-H1975; first compound 0.1 µM) of 0.792 and a relative viability (NCI-H1975; first compound 0.3162 µM) of 0.874. The relative viability (NCI-H1975; first compound 1 µM) was 0.752, the relative viability (NCI-H2342; first compound 0.01 µM) was 0.641 and the relative viability (NCI-H2342; first compound 0.03162 µM) was 0.591. The relative viability (NCI-H2342; first compound 0.1 µM) was 0.652, the relative viability (NCI-H2342; first compound 0.3162 µM) was 0.715 and the relative viability (NCI-H2342; first compound 1 µM) was 0.533. For the same compound, the relative viability (NCI-H23; first compound 0.01 µM) was 0.641, the relative viability (NCI-H23; first compound 0.03162 µM) was 0.633 and the relative viability (NCI-H23; first compound 0.3162 µM) was 0.757. For the same compound, the relative viability (NCI-H23; first compound 1 µM) was 0.723, the relative viability (NCI-H358; first compound 0.01 µM) was 0.83 and the relative viability (NCI-H358; first compound 0.03162 µM) was 0.878. For the same compound, the relative viability (NCI-H358; first compound 0.1 µM) was 0.881, the relative viability (NCI-H358; first compound 0.3162 µM) was 0.844 and the relative viability (NCI-H358; first compound 1 µM) was 0.781. It also gave a relative viability (NCI-H441; first compound 0.01 µM) of 0.679, a relative viability (NCI-H441; first compound 0.03162 µM) of 0.617 and a relative viability (NCI-H441; first compound 0.1 µM) of 0.537. For the same compound, the relative viability (NCI-H441; first compound 0.3162 µM) was 0.614, the relative viability (NCI-H441; first compound 1 µM) was 0.648 and the relative viability (NCI-H596; first compound 0.01 µM) was 0.738. It also gave a relative viability (NCI-H596; first compound 0.03162 µM) of 0.747, a relative viability (NCI-H596; first compound 0.1 µM) of 0.493 and a relative viability (NCI-H596; first compound 0.3162 µM) of 0.828. The relative viability (NCI-H596; first compound 1 µM) was 0.722, the relative viability (NCI-H650; first compound 0.03162 µM) was 0.591 and the relative viability (NCI-H650; first compound 0.1 µM) was 0.391. For the same compound, the relative viability (NCI-H650; first compound 0.3162 µM) was 0.598, the relative viability (NCI-H650; first compound 1 µM) was 0.493 and the relative viability (NCI-H838; first compound 0.01 µM) was 0.401. The relative viability (NCI-H838; first compound 0.03162 µM) was 0.397, the relative viability (NCI-H838; first compound 0.1 µM) was 0.389 and the relative viability (NCI-H838; first compound 0.3162 µM) was 0.42. For the same compound, the relative viability (NCI-H838; first compound 1 µM) was 0.374, the relative viability (SK-MES-1; first compound 0.01 µM) was 0.613 and the relative viability (SK-MES-1; first compound 0.03162 µM) was 0.685. The relative viability (SK-MES-1; first compound 0.1 µM) was 0.531, the relative viability (SK-MES-1; first compound 0.3162 µM) was 0.633 and the relative viability (SK-MES-1; first compound 1 µM) was 0.579. It also gave a relative viability (SW 900; first compound 0.01 µM) of 0.565, a relative viability (SW 900; first compound 0.03162 µM) of 0.572 and a relative viability (SW 900; first compound 0.1 µM) of 0.311. The relative viability (SW 900; first compound 0.3162 µM) was 0.69 and the relative viability (SW 900; first compound 1 µM) was 0.545.
